Experimental data reported in patent US9446011B2, “Anticonvulsant combination therapy” (UCB Pharma GmbH, priority 2006, dated 2016).
Entries after “also recorded” stand apart in the source; their conditions may differ.

What was measured:
epileptic seizures = assay: ED50 values in various models of the rat and the mouse; assay type: in vivo; settings: i.p.
Procedure: The skilled person may determine the ED50 values by methods known in the art. It is preferred that the ED50 values are determined by preclinical or/and clinical trials. Published ED50 values may also be used. […] FIGS. 12 and 13 disclose specific ED50 values obtained in various models of the rat and the mouse. A person skilled in the art knows that in a particular model, among different species, ED50 values show a variation by a factor of up to 5 or even larger.

[1] = tested on: 6 Hz refractory seizure model; settings: in vivo; cited from earlier work
6 Hz-induced seizures = assay: 6 Hz seizure test in mice with isobolographic analysis; settings: for anticonvulsant effects against 6 Hz seizure: drug administered alone, i.p., mice; for doses for antiseizure effect compared with those needed in the MES test: MES data obtained in other studies
[2] = tested on: maximal electroshock seizure [MES]; settings: in vivo; cited from earlier work
[3] = Clinical population pharmacokinetic analysis
[4] = tested on: lithium-pilocarpine-induced status epilepticus; settings: in vivo; cited from earlier work
[5] = tested on: voltage gated sodium channels; assay: Voltage gated sodium channels in cell/tissue culture; assay type: cell-based; settings: recent data
[6] = tested on: pattern of neuronal activation; settings: 2-deoxy glucose technique; cited from earlier work
[7] = tested on: voltage gated sodium channels; settings: cell/tissue culture; cited from earlier work
[8] = biological target: collapsing response mediator protein CRMP-2 (Homo sapiens, UniProt Q16555); assay: Modulation of CRMP-2; settings: recent data
NMDA-evoked currents = settings: cell/tissue culture; cited from earlier work
[9] = tested on: neurotransmitter receptors or ion channels; settings: more than 100 different sites; cited from earlier work
glutamate transmission = settings: mouse cortical neurons; cited from earlier work
motor coordination = assay: Rotarod test; assay type: in vivo, mice; settings: drug alone at pharmacological doses
Procedure: The impaired motor function was quantified by the rotarod test in mice according to Dunham and Miya (1957). The rotarod test was undertaken by use of a rod of 3 cm diameter, rotating at constant speed of 6 rpm. In this test, an acute neurological deficit (adverse effects produced by AEDs) was indicated by the inability of the animals to maintain their equilibrium for at least 120 s on the rotating rod. The dose ratio assessed in this model was always 1:1. For comparison, each AED was tested alone at its ED50 and 50% of its ED50 in the 6 Hz model.

[10] = tested on: cobalt-homocysteine-induced status epilepticus; settings: in vivo; cited from earlier work
GABA currents = settings: mouse cortical neurons; cited from earlier work
sound-induced seizure = settings: mouse, in vivo; cited from earlier work
[11] = tested on: refractory self-sustaining status epilepticus; settings: in vivo; cited from earlier work

In the case of CC[C@@H](C(N)=O)N1CCCC1=O [LEV, levetiracetam], the ED50 (epileptic seizures) is listed as “about 20 mg/kg body weight”, the “protection in the 6 Hz model” value [1] is listed as “complete protection” and the “anticonvulsant effects against 6 Hz seizure” value (“anticonvulsant effects” below) (6 Hz-induced seizures) is listed as “dose-dependent anticonvulsant effects”.

In the case of COC[C@@H](NC(C)=O)C(=O)NCc1ccccc1 [LCM, R-2-acetamido-N-benzyl-3-methoxypropionamide], the anticonvulsant activity [2] is given as “anticonvulsant activity has been shown”, the “effect on plasma levels of AEDs or vice versa” value [3] is given as “no evidence for any effect” and the “activity against status epilepticus” value [4] is given as “effective”. For the same compound, the “slow inactivation of voltage-gated sodium channels” value [5] was “enhances slow inactivation”, the “effect on basal patterns” value [6] was “no effect” and the “effect on the pattern of neuronal activation by 6 Hz induced seizures” value [6] was “attenuated”. The “effects at voltage gated sodium channels” value [7] was “no effects”, the anticonvulsant activity [1] was “anticonvulsant activity has been shown” and the “effect on CRMP-2” value [8] was “modulates”. For the same compound, the “effects on NMDA-evoked currents” value (NMDA-evoked currents) was “no effects”, the “potency compared to the other tested AEDs” value (6 Hz-induced seizures; 6 Hz model, drugs alone) was “highest potency” and the “anticonvulsant effects” value (6 Hz-induced seizures) was “dose-dependent anticonvulsant effects; also recorded: fully protected”. For the same compound, the binding [9] was “neither LCM nor its metabolites bind”, the “effect on glutamate transmission” value (glutamate transmission) was “inhibited glutamate transmission indirectly” and the rotarod performance (motor coordination) was “did not impair rotarod performance”. The “activity against status epilepticus” value [10] was “effective”, the “effect on GABA currents” value (GABA currents) was “increased GABA currents” and the anticonvulsant activity (sound-induced seizure) was “anticonvulsant activity has been shown”. The “activity against status epilepticus” value [11] was “active”.

In the case of Nc1nnc(-c2cccc(Cl)c2Cl)c(N)n1 [LTG, lamotrigine], the ED50 (epileptic seizures) was “about 85 mg/kg body weight”, the “doses for antiseizure effect compared with those needed in the MES test” value (6 Hz-induced seizures) was “significantly higher doses” and the “anticonvulsant effects” value (6 Hz-induced seizures) was “dose-dependent anticonvulsant effects”.

For NC(=O)N1c2ccccc2C=Cc2ccccc21 [CBZ, carbamazepine], the “doses for antiseizure effect compared with those needed in the MES test” value (6 Hz-induced seizures) was “significantly higher doses” and the “anticonvulsant effects” value (6 Hz-induced seizures) was “dose-dependent anticonvulsant effects”.

With O=C1NC(=O)C(c2ccccc2)(c2ccccc2)N1 [PHT, phenytoin] the “doses for antiseizure effect compared with those needed in the MES test” value (6 Hz-induced seizures) was “significantly higher doses” and the “anticonvulsant effects” value (6 Hz-induced seizures) was “dose-dependent anticonvulsant effects”.

For CC1(C)O[C@@H]2[C@@H](CO[C@@]3(COS(N)(=O)=O)OC(C)(C)O[C@@H]23)O1 [TPM, topiramate], the “doses for antiseizure effect compared with those needed in the MES test” value (6 Hz-induced seizures) was “significantly higher doses” and the “anticonvulsant effects” value (6 Hz-induced seizures) was “dose-dependent anticonvulsant effects”.

With NCC1(CC(=O)O)CCCCC1 [GBP, gabapentin] the “doses for antiseizure effect compared with those needed in the MES test” value (6 Hz-induced seizures) was “significantly higher doses” and the “anticonvulsant effects” value (6 Hz-induced seizures) was “dose-dependent anticonvulsant effects”.
